Columns and labels:
Type in all cases: cell-based
human ANO2 = molecular target: T1, human ANO2 (Homo sapiens, UniProt Q9NQ90); test: YFP fluorescence quenching assay in FRT cells expressing human ANO2; conditions: FRT cells expressing human ANO2, up to 10 μM
T1 construct: expressed in transfected cells; host or cells: Fisher rat thyroid (FRT) cells
T1 sequence (Q9NQ90 1-998): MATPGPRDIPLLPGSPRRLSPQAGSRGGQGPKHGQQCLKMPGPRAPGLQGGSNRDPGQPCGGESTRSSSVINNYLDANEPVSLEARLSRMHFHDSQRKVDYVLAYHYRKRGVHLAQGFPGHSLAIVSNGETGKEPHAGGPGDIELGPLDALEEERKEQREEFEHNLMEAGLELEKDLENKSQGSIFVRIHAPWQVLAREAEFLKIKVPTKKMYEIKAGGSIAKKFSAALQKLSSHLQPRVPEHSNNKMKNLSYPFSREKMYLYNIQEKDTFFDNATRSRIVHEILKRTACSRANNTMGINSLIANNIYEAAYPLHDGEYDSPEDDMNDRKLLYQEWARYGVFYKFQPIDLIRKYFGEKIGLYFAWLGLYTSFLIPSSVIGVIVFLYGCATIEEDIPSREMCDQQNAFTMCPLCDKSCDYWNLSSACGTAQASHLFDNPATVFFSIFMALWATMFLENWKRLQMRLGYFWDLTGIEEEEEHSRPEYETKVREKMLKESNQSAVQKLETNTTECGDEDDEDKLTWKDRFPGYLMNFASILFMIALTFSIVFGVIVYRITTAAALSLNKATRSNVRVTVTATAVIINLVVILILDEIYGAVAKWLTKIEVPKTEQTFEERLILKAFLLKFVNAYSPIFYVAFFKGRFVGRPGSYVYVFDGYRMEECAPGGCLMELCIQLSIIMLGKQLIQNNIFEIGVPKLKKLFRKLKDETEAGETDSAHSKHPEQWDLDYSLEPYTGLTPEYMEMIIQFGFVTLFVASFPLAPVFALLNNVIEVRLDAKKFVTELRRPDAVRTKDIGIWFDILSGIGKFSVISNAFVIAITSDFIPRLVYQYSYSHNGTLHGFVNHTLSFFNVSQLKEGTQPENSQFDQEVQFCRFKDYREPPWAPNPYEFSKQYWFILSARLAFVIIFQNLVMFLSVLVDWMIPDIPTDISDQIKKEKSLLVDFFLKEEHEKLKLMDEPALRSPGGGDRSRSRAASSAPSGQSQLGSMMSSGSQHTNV
Description: ANO2 activity was measured using YFP fluorescence quenching assay in FRT cells expressing human ANO2.
(D) Representative YFP fluorescence traces in FRT cells expressing human ANO2.

hERG K+ channel = molecular target: T2, hERG K+ channel (Homo sapiens, UniProt Q12809); test: FluxOR thallium flux assay in HEK293T cells expressing hERG
T2 construct: expressed in transfected cells; called HEK293
Description: (C) Summary of dose-response (mean ± S.E., n = 5). […] (F) Summary of dose−response (mean ± S.E., n = 6).
HEK293 cells stably expressing human Kv11.1 (hERG) were cultured in 96-well plates. After 48 h, the cells were incubated at 28 °C for 4 h to increase the membrane expression of hERG. The culture medium was replaced with a 80 μL/well of FluxOR (Invitrogen, Waltham, MA, USA) loading buffer and incubated for 1 h at 37 °C in the dark. After removing the loading buffer, 100 μL of assay buffer was added to each well. […] FluxOR fluorescence (excitation/emission: 490/525 nm) was recorded for 4 s before the addition of 20 μL of stimulus buffer containing thallium ions, and the fluorescence was recorded. FluxOR fluorescence was recorded and analyzed using the FLUOstar Omega microplate reader (BMG Labtech, Ortenberg, Germany) and the MARS Data Analysis Software (BMG Labtech, Ortenberg, Germany). All buffers were prepared according to the manufacturer’s instructions.

[1] = molecular target: T3, VRAC-mediated chloride current (ICl, swell) in HEK293T cells (Homo sapiens, UniProt Q8IWT6); test: Whole-cell voltage-clamp of ICl,swell in HEK293T cells; conditions: dose-dependent
T3 construct: endogenous in cells; host or cells: HEK293T
T3 sequence (Q8IWT6 1-810): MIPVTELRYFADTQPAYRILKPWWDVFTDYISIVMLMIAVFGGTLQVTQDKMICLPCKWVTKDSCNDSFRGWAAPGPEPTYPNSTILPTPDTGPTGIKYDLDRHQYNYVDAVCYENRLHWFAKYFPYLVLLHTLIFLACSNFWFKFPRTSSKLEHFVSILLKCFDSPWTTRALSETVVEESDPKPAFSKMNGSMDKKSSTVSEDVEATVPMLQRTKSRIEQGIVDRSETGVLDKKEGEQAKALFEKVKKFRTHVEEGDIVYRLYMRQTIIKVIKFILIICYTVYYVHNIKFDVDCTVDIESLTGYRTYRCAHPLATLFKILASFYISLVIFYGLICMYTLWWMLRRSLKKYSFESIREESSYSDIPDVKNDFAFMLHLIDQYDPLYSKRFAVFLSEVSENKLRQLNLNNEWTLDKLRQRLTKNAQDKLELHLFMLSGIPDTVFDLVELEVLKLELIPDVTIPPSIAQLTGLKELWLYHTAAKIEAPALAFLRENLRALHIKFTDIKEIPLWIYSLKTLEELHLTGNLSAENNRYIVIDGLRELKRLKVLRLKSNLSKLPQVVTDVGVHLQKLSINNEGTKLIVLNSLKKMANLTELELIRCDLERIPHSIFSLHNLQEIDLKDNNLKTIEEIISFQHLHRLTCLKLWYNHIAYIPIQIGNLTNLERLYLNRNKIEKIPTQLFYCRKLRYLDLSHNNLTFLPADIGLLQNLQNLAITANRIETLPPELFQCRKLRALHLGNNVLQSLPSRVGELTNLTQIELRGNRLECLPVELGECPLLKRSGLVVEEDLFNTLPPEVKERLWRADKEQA
Description: (A) Whole-cell membrane currents were recorded at a holding potential of −50 mV by voltage steps ranging from −120 to 120 mV (in steps of 20 mV) in HEK293T cells. […] (C) Whole-cell VRAC currents were recorded at a holding potential of −50 mV by voltage steps ranging from −100 to 100 mV (in steps of 20 mV) in LN215 cells.
For volume-regulated anion channel (VRAC) currents measurement, the isotonic bath solution contained (in mM): 150 NaCl, 6 KCL, 1.5 CaCl2, 1 MgCl2, 10 glucose, 1 HEPES, and pH 7.4 with NaOH (320 mOsm). […] The pipette solution contained (in mM): 40 CsCl, 100 Cs-methanesulfonate, 0.5 EGTA, 1 MgCl2, 1.9 CaCl2, 5 EGTA, 4 Tris−ATP, 10 HEPES, and pH 7.2 with CsOH (290 mOsm). Pipettes were pulled from borosilicate glass and had resistances of 3–5 MΩ after fire polishing. Seal resistances were between 3 and 10 GΩ. The liquid junction potential (~2.4 mV) was not corrected. After establishing the whole-cell configuration, whole-cell capacitance and series resistance were compensated with the amplifier circuitry. VRAC was activated by exposing LN215 cells to a 25% hypotonic bath solution. Whole-cell currents were elicited by applying hyperpolarizing and depolarizing voltage pulses from a holding potential of 0 mV to potentials between −100 mV and +100 mV or −120 mV and +120 mV in steps of 20 mV. Recordings were made at room temperature. […]

T2 sequence (Q12809 whole entry): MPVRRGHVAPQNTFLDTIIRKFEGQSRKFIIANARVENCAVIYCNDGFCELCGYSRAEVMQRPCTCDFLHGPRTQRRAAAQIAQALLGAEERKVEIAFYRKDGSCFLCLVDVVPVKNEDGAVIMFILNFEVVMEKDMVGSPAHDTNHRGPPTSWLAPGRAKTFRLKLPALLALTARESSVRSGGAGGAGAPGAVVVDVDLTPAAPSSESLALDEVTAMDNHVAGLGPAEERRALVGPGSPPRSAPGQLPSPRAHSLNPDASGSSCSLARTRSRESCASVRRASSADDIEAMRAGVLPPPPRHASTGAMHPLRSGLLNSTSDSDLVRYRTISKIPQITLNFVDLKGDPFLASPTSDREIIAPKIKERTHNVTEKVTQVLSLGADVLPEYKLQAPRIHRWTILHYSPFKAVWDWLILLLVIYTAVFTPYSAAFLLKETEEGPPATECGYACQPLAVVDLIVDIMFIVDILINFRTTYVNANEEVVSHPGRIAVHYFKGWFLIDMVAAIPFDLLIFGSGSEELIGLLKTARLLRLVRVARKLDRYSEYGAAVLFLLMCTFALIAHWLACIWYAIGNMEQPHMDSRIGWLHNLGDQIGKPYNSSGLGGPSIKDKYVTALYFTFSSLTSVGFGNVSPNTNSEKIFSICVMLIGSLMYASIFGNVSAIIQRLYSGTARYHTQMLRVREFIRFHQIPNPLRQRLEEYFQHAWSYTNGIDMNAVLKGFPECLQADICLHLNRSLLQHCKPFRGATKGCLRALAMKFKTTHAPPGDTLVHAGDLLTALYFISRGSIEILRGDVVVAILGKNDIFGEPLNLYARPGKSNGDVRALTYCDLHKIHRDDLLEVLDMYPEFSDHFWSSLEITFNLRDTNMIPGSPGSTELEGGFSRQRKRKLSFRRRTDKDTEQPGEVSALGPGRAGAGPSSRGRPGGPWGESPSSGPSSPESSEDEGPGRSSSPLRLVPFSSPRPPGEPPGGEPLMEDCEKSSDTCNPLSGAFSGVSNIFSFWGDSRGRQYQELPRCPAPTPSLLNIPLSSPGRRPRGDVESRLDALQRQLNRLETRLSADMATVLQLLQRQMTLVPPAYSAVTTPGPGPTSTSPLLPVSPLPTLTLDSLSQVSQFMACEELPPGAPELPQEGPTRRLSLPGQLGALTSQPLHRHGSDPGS

Q: With `COc1cccc(C(c2c(O)c3ccccc3oc2=O)c2c(O)c3ccccc3oc2=O)c1O` [VI-116, 3,3′-((2-hydroxy-3-methoxyphenyl)methylene)bis(4-hydroxy-2H-chromen-2-one)] as the compound, how does the “effect on ANO2 activity” value (human ANO2) read?
A: The value was “minimal effect”.

Q: What about the “effect on hERG K+ channel activity” value (hERG K+ channel; 10 μM) of the same compound?
A: Its value is “minimal inhibitory effect”.

Q: And the IC50 (hERG K+ channel; thallium flux, HEK293T cells expressing hERG, n = 6)?
A: The IC50 was 89.6 µM.

Q: What about the “effect on hypotonic perfusion activated ICl, swell” value [1] of the same compound?
A: The value was “completely blocked”.

Reference: PMC9103758 (International Journal of Molecular Sciences, 2022)
